Experimental data reported in patent US9834823B2, “Primers, assays and methods for detecting an E. coli subtype” (priority 2012, dated 2017).

How the values were obtained:
Type in all cases: cell-based
[1] = system: Escherichia coli clinical isolates (ESBL-positive and ESBL-negative; ST131 subclones); assay: Broth microdilution antimicrobial susceptibility, NorthShore ESBL case-control isolates; conditions: for No. of resistant isolates (column %), H30-Rx (N = 47): H30-Rx subclone isolates (N = 47) within the H30 ST131 subclone; for No. of resistant isolates (column %), H30, non-Rx (N = 15): H30 non-Rx isolates (N = 15) within the H30 ST131 subclone; for No. of resistant isolates (column %), H30 (N = 62): H30 subclone isolates (N = 62) among 71 E. coli ST131 isolates; for No. of resistant isolates (column %), Non-H30 (N = 9): non-H30 isolates (N = 9) among 71 E. coli ST131 isolates
Source text: As reported elsewhere, the 267 E. coli study isolates were collected between 2007 and 2010 as part of a prospective case-control study conducted at NorthShore University HealthSystem (Banerjee, R J et al. “Predictors and molecular epidemiology of community-onset extended-spectrum beta-lactamase (ESBL) Escherichia coli infection in a Midwestern community,” 2013 Infect Control Hosp Epidemiol; in press). Cases were defined as adults with ESBL-producing E. coli cultured from any specimen type. Controls were defined as the 1 or 2 patients with non-ESBL E. coli isolates identified just subsequent to the case isolate, and with the same specimen type and location of collection. Isolates obtained in the outpatient setting or within 48 hours of hospital admission were considered causes of community-associated infection. Further study details are as described (Banerjee, R J et al. “Predictors and molecular epidemiology of community-onset extended-spectrum beta-lactamase (ESBL) Escherichia coli infection in a Midwestern community,” 2013 Infect Control Hosp Epidemiol; in press).
The resistance score was the total number of agents to which an isolate was resistant. This study was approved by the NorthShore and VA Medical Center institutional review boards.

[2] = system: Escherichia coli clinical isolates from U.S. veterans; assay: Susceptibility testing (broth microdilution or disk diffusion) at VAMCs with population back-calculations; conditions: for Prevalence of resistance, H30 ST131: H30 ST131 subclone isolates (H30 subclone vs. others); for Prevalence of resistance, ST131: ST131 isolates (ST131 vs. others); for Prevalence of resistance, Total (%): all isolates; for Estimated fraction due to ST131: fraction of resistance phenotype due to ST131; for Overall prevalence in population, %: resistance phenotype, back-calculated with 29% FQ resistance
[3] = system: extraintestinal Escherichia coli isolates; assay: Antimicrobial susceptibility testing (CLSI breakpoints), Olmsted County isolates; conditions: for Resistance prevalence among H30 ST131: H30 ST131 subclone, N = 70; for Resistance prevalence among non-H30 ST131: non-H30 ST131, N = 10
[4] = ESBL-negative isolates, All N = 167
[5] = ESBL-negative isolates, Non-ST131 N = 145
[6] = ESBL-negative isolates, ST131 N = 22
[7] = ESBL-positive isolates, All N = 100
[8] = ESBL-positive isolates, Non-ST131 N = 51
[9] = ESBL-positive isolates, ST131 N = 49
[10] = all non-H30 isolates (H30 subclone vs. others)
[11] = all non-ST131 isolates (ST131 vs. others)
[12] = resistance prevalence among H30 ST131 subclone isolates relative to all other isolates
[13] = resistance prevalence among ST131 isolates relative to all other isolates

Row | Molecule | No. resistant (column %) [1, 4] | No. resistant (column %) [1, 5] | Prevalence of resistance, H30 ST131 [2] | Prevalence of resistance, ST131 [2] | Prevalence of resistance, Total (%) [2] [%] | Prevalence of resistance, Others (%) [2, 10] [%] | Prevalence of resistance, Others (%) [2, 11] [%] | Estimated fraction due to ST131 [2] | Overall prevalence in population, % [2] [%] | Prevalence ratio of resistance [2, 12] | Prevalence ratio of resistance [2, 13] | No. of resistant isolates (column %) ([3]; All isolates, N = 299) | Resistance prevalence among H30 ST131 [3] [%] | No. of resistant isolates (column %) ([3]; Other STs, N = 129) | No. of resistant isolates (column %) ([3]; ST9, N = 32) | No. of resistant isolates (column %) ([3]; ST69, N = 15) | No. of resistant isolates (column %) ([3]; ST73, N = 25) | No. of resistant isolates (column %) ([3]; ST127, N = 18) | No. of resistant isolates (column %) ([3]; ST131, N = 80) | Resistance prevalence among non-H30 ST131 [3] [%] | other results
1 | CC1(C)S[C@@H]2[C@H](NC(=O)[C@H](N)c3ccccc3)C(=O)N2[C@H]1C(=O)O [Ampicillin, ampicillin] | 73 (44) | 54 (37) | 76 | 77 | 46 | 36 | 34 | .46 | 46 | 2.1 | 2.3 | 156 (52) | 81 | 3 (41) | 13 (41) | 11 (73) | 10 (40) | 4 (22) | 65 (81) | 80 | No. resistant (column %) [1, 6]: 19 (86); No. resistant (column %) [1, 7]: 100 (100); No. resistant (column %) [1, 8]: 51 (100); No. resistant (column %) [1, 9]: 49 (100); No. of resistant isolates (column %), H30-Rx (N = 47) [1]: 46 (98) No. (column %); No. of resistant isolates (column %), H30, non-Rx (N = 15) [1]: 15 (100) No. (column %); No. of resistant isolates (column %), H30 (N = 62) [1]: 61 (98) No. (column %); No. of resistant isolates (column %), Non-H30 (N = 9) [1]: 7 (78) No. (column %)
2 | Cc1nnc(SCC2=C(C(=O)O)N3C(=O)[C@@H](NC(=O)Cn4cnnn4)[C@H]3SC2)s1 [Cefazolin, cefazolin] | 10 (6) | 9 (6) | 27 | 29 | 17 | 14 | 12 | .47 | 17 | 2.0 | 2.3 | 93 (31) | 58 | 30 (23) | 3 (9) | 5 (33) | 7 (28) | 3 (17) | 45 (57) | 50 | No. resistant (column %) [1, 6]: 1 (5); No. resistant (column %) [1, 7]: 99 (99); No. resistant (column %) [1, 8]: 51 (100); No. resistant (column %) [1, 9]: 48 (98); No. of resistant isolates (column %), H30-Rx (N = 47) [1]: 43 (91) No. (column %); No. of resistant isolates (column %), H30, non-Rx (N = 15) [1]: 5 (33) No. (column %); No. of resistant isolates (column %), H30 (N = 62) [1]: 48 (77) No. (column %); No. of resistant isolates (column %), Non-H30 (N = 9) [1]: 1 (11) No. (column %)
3 | CC(C)(O/N=C(\C(=O)N[C@@H]1C(=O)N2C(C(=O)[O-])=C(C[n+]3ccccc3)CS[C@H]12)c1csc(N)n1)C(=O)O [Ceftazidime] | 1 (1) | 1 (1) |  |  |  |  |  |  |  |  |  |  |  |  |  |  |  |  |  |  | No. resistant (column %) [1, 6]: 0 (0); No. resistant (column %) [1, 7]: 92 (92); No. resistant (column %) [1, 8]: 47 (92); No. resistant (column %) [1, 9]: 45 (92); No. of resistant isolates (column %), H30-Rx (N = 47) [1]: 40 (85) No. (column %); No. of resistant isolates (column %), H30, non-Rx (N = 15) [1]: 4 (27) No. (column %); No. of resistant isolates (column %), H30 (N = 62) [1]: 44 (71) No. (column %); No. of resistant isolates (column %), Non-H30 (N = 9) [1]: 1 (11) No. (column %)
4 | CO/N=C(\C(=O)N[C@@H]1C(=O)N2C(C(=O)O)=C(CSc3nc(=O)c(=O)[nH]n3C)CS[C@H]12)c1csc(N)n1 [Ceftriaxone, ceftriaxone] | 1 (1) | 1 (1) | 4 | 3 | 2 | 2 | 2 | .43 | 2 | 2.0 | 1.9 | 16 (6) | 9 | 8 (7) | 0 | 0 | 0 | 0 | 8 (11) | 29 | No. resistant (column %) [1, 6]: 0 (0); No. resistant (column %) [1, 7]: 98 (98); No. resistant (column %) [1, 8]: 51 (100); No. resistant (column %) [1, 9]: 47 (96); No. of resistant isolates (column %), H30-Rx (N = 47) [1]: 42 (89) No. (column %); No. of resistant isolates (column %), H30, non-Rx (N = 15) [1]: 4 (27) No. (column %); No. of resistant isolates (column %), H30 (N = 62) [1]: 46 (74) No. (column %); No. of resistant isolates (column %), Non-H30 (N = 9) [1]: 1 (11) No. (column %)
5 | C[C@@H](O)[C@H]1C(=O)N2C(C(=O)O)=C(SCCN=CN)C[C@H]12 [Imipenem, imipenem] |  |  | 0.5 | 0.4 | 0.25 | 0.2 | 0.2 | .50 | 0.25 | 1.4 | 1.4 | 3 (1) |  | 1 (1) | 0 | 0 | 0 | 2 (14) | 0 |  | 
6 | O=C1CN(/N=C/c2ccc([N+](=O)[O-])o2)C(=O)N1 [Nitrofurantoin, nitrofurantoin] |  |  | 8 | 8 | 6 | 5 | 5 | .36 | 6 | 3.4 | 3.2 | 8 (3) | 3 | 3 (2) | 1 (3) | 0 | 1 (4) | 0 | 3 (4) | 13 | 
7 | ampicillin/sulbactam |  |  | 57 | 58 | 34 | 27 | 24 | .48 | 34 | 2.1 | 2.4 |  |  |  |  |  |  |  |  |  | 
8 | gentamicin | 12 (7) | 2 (1) | 28 | 29 | 11 | 5 | 3 | .76 | 11 | 5.4 | 8.2 | 29 (10) | 30 | 5 (4) | 0 | 0 | 0 | 1 (6) | 23 (29) | 20 | No. resistant (column %) [1, 6]: 10 (45); No. resistant (column %) [1, 7]: 48 (48); No. resistant (column %) [1, 8]: 30 (59); No. resistant (column %) [1, 9]: 18 (37); No. of resistant isolates (column %), H30-Rx (N = 47) [1]: 15 (32) No. (column %); No. of resistant isolates (column %), H30, non-Rx (N = 15) [1]: 8 (53) No. (column %); No. of resistant isolates (column %), H30 (N = 62) [1]: 23 (37) No. (column %); No. of resistant isolates (column %), Non-H30 (N = 9) [1]: 5 (56) No. (column %); ST131's overall contribution to antimicrobial resistance within the source E. coli population ([2]; back-calculations): 76%
9 | piperacillin/tazobactam |  |  |  |  |  |  |  |  |  |  |  | 6 (2) | 1 | 2 (2) | 0 | 0 | 2 (8) | 1 (6) | 1 (1) | 0 | 
